Source: US8153359B2, “Toxicity assay based on human blastocyst-derived stem cells and progenitor cells” (Cellartis AB, priority 2006, dated 2012)

Experiments:
[1] = tested on: human foreskin fibroblasts (hFFs); assay: Cytotoxicity test, viability by Resazurin reduction, hFFs; type: cell-based; details: relative to hBS cells = 1
hBS MPs [2] = assay: Cytotoxicity test, viability by ATP content, hBS MPs (progenitor cells); type: cell-based, human; details: relative to hBS cells = 1
[3] = tested on: human foreskin fibroblasts (hFFs); assay: Cytotoxicity test, viability by ATP content, hFFs; type: cell-based; details: relative to hBS cells = 1
hBS cells [4] = assay: Cytotoxicity test, viability by Resazurin reduction, hBS cells; type: cell-based, human; details: hBS cells set to 1
hBS cells [5] = assay: Cytotoxicity test, viability by ATP content (CellTiterGlo), hBS cells; type: cell-based, human; details: hBS cells set to 1
hBS MPs [6] = assay: Cytotoxicity test, viability by Resazurin reduction, hBS MPs (progenitor cells); type: cell-based, human; details: relative to hBS cells = 1
[7] = tested on: hBS cells, hBS MPs and hFFs; assay: Cytotoxicity test, comparison over all cell types (hBS cells, progenitor cells, hFF); details: FIG. 3

Row | Structure (SMILES) | Ratio between the IC50 values measured using the Rezasurin assay, hFF [1] | Ratio between the IC50 values measured using the ATP assay, Progenitors (hBS MPs [2]) | Ratio between the IC50 values measured using the ATP assay, hFF [3] | Ratio between the IC50 values measured using the Rezasurin assay, hBS cells (hBS cells [4]) | Ratio between the IC50 values measured using the ATP assay, hBS cells (hBS cells [5]) | Ratio between the IC50 values measured using the Rezasurin assay, Progenitors (hBS MPs [6]) | toxic reaction [7]
1 | CC1=C(/C=C/C(C)=C/C=C/C(C)=C\C(=O)O)C(C)(C)CCC1 [13CRA, 13-cis retinoic acid] | >7 | 0.000025 | >6 | 1 | 1 | 0.000001 | –
2 | O=C1NS(=O)(=O)c2ccccc21.[Na] [Saccharin, Sodium Saccharin] | – | – | – | – | – | – | no toxic reaction
3 | CC1=C(/C=C/C(C)=C/C=C/C(C)=C/C(=O)O)C(C)(C)CCC1 [ATRA, all-trans retinoic acid] | >6 | 0.0001 | >4 | 1 | 1 | 0.0005 | –
4 | O=c1[nH]cc(F)c(=O)[nH]1 [5-FU, 5-Fluorouracil] | 2.5 | 2 | 7 | 1 | 1 | 1 | –
